The test system of assay [1] is isolated CNS of pharate 5th instar larvae. The assay is described as follows: Electrophysiology: extracellular motor bursts recorded in nerves of abdominal ganglia of the isolated intact or desheathed CNS. Also noted: species or system Bombyx mori. The conditions noted are these: for ecdysis burst pattern, CCAP or MIPs applied alone: CCAP alone n = 4, MIP-I only or MIP-I-VII mixture n = 5; for time to burst patterns characteristic for pre-ecdysis I and II in dorsal and ventral nerves: isolated nerve cords. Here is the method:
Specific roles of various neuropeptides produced by the ETHR neurons were determined using electrophysiology technique in the isolated intact or desheathed CNS. Sharp forceps were used to remove the neurolema on the dorsal or ventral side of selected ganglia under physiological saline (see above) and dorsal or ventral nerves of the abdominal ganglia (AG1-7) were attached to plastic suction electrodes. A mixture or individual neuropeptides were then applied in a 300 μl saline bath and induced extracellular motor bursts were recorded using differential AC amplifier 1700 (A-M Systems, Carlsborg, WA, USA) and Axoscope program (Axon Instruments, Union City, CA, USA). Synthetic peptides used in the assay are listed in Supplementary Table S2 online. A mixture of MIPs was adjusted according to its copy number in the precursor: MIP-I (five copies), MIP-II,V (two copies), MIP-III,IV,VI,VII (one copy each)[28].

A further assay deals with ETHR-A (BNGR-A6-A). The assay is described as follows: Aequorin-based calcium mobilization assay, ETHR-A transiently expressed in CHO-K1 cells. The assay is classed as cell-based, Bombyx mori. Here is the method: Pharmacological characterization of ETHR-A (BNGR-A6-A) and ETHR-B (BNGR-A6-B) receptors were carried out in the Chinese hamster ovary (CHO-K1) cells. For expression in CHO-K1 cells, the entire open reading frame for each ETHR was inserted into pcDNA3.1 ( +) vector (Invitrogen, Carlsbad, CA, USA) with a mammalian Kozak translation initiation sequence incorporated at 5´ end and confirmed by DNA sequencing prior to use. The primers used to clone BNGR-A6-A and BNGR-A6-B are listed in Supplementary Table S1 online. For the assay, each receptor was expressed together with the bioluminescent calcium-sensitive reporter aequorin and chimeric Gqs alpha subunit protein that couples receptor activation to the phospholipase C and intracellular Ca^2+ mobilization. […]
The procedures used for the receptor assays were described previously. […] Following cell application to a well, emitted luminescence corresponding to the ligand-induced intracellular Ca^2+ release was monitored in 0.5 s intervals for 20 s using the GloMax-Multi Detection System (Promega, Madison, WI, USA). […] All experiments were replicated three times and collected output data calculated and further analyzed in Excel (Microsoft, Redmond, WA, USA) and GraphPad Prism 6 software (GraphPad Software Inc.). The concentration-dependent response curves, as well as the corresponding EC50 values were calculated using the Prism software. […]
(A change in cytosolic calcium serves as a functional read-out for many receptors and channels.)

The subject of another assay is pharate larvae. As to the kind of experiment: ETH injection into pharate larvae, ecdysis behavior. The class given is in vivo, Bombyx mori. The conditions noted are these: pharate larvae injected with ETH at 8–15 h prior to ecdysis; fail to shed the old cuticle. Here is the method:
Under normal conditions, the ecdysis behavior lasts for ∼10 min and terminates immediately after the old cuticle is completely shed from the last abdominal segment. However, pharate larvae injected with ETH at 8–15 h prior to ecdysis fail to shed the old cuticle and show strong ecdysis contractions for 1–2 h. […] To determine a site of sensory input that terminates the ecdysis behavior, we peeled off a narrow ring of the old cuticle on abdominal segments 1, 3, 5 or 6 of late pharate 5th instar larvae 1–3 h prior to ecdysis. These larvae invariably initiated normal pre-ecdysis behaviors at the expected time and after ∼1 h switched to peristaltic waves of ecdysis contractions. […] In spite of presence of the old cuticle on the head, thorax and anterior abdomen, strong ecdysis contractions ceased immediately after the posterior cuticle was shed from the last abdominal segment in all larvae (n = 14).

What is called EC50 is the concentration needed to bring the measured effect to its halfway point.

Consider AWQDLNSAWa [MIP-I], for which the “ecdysis burst pattern, CCAP or MIPs applied alone” value in assay [1] (desheathed CNS) is listed as “weak prolonged synchronous bursts or no rhythmic pattern”.

With “GQSNNNRGRVLRCFFNAVTCF-OH [AST-CC, allatostatin CC, allatostatin CC of Bombyx mori]”, the “time to onset of ecdysis bursts” value in assay [1] (desheathed CNS dissected 2–6 h prior to ecdysis, 0,3–1 μM, n = 14) lay within 5 to 12 min. The “response (ecdysis motor pattern) of earlier pharate or feeding stages” value in assay [1] (desheathed CNS, 0,3–1 μM, n = 9) is on record as “irresponsive”.

As for “NADLINSLLALPKDMNDAa [PDF, pigment dispersing factor, pigment dispersing factor of Bombyx mori]”, the “time to onset of pre-ecdysis II bursts (asynchronous motoneuron activity) in ventral nerves of AG2-7” value in assay [1] (desheathed CNS, 0.3–1 μM, n = 8) was in the range of 3 to 5 min.

For the substance “PFCNAFTGCa [CCAP, crustacean cardioactive peptide]”, in assay [1] (desheathed CNS), the “ecdysis burst pattern, CCAP or MIPs applied alone” value is recorded as “less effective”.

As to “SFIKPN.NVPRVa [PETH, pre-ecdysis triggering hormone, pre-ecdysis triggering hormone from B. mori, synthetic peptide]”, the “time to burst patterns characteristic for pre-ecdysis I and II in dorsal and ventral nerves” value in assay [1] (0.3–1 μM, n = 14) lay within 5 to 7 min. In addition, the EC50 with ETHR-A (BNGR-A6-A) (CHO-K1 cells co-expressing aequorin and chimeric Gqs alpha subunit, luminescence as % of maximum peak, mean of n = 3, read-out: EC50, BomETHR-A) is 9.43 nM. Besides, the “fold lower sensitivity of ETHR-A to PETH than to ETH” value in the assay on ETHR-A (BNGR-A6-A) (from concentration-response curves in CHO cells) was ~ 20 fold.

Take “SNEAISPFDQGMMGYVIKTNKNIPRMa [ETH, ecdysis triggering hormone, ecdysis triggering hormone from B. mori, synthetic peptide]”: in assay [1] (desheathed CNS activated by ETH, n = 10), the “time to initiation of clear ecdysis bursts after ETH” value lay within 27 to 35 min. For the same substance, in assay [1] (isolated CNS of pharate larvae treated with ETH, dorsal nerves AG4-7), the “duration of pre-ecdysis before switch to ecdysis motor patterns (ecdysis activation)” value is recorded as ~ 40 min. In addition, the “time to burst patterns characteristic for pre-ecdysis I and II in dorsal and ventral nerves” value in assay [1] (0.3–1 μM, n = 14) was in the range of 5 to 7 min. Further, the “duration of strong ecdysis contractions” value with pharate larvae lay within 1 to 2 h.
